In brackets after ≈: the same amount, converted by molar mass. Where two headings read alike, the source gives them in different places.
Key:
Format in all cases: cell-based
[1] = tested on: E. coli sample (positive blood culture); assay: ChroMIC automated colorimetric MIC assay directly from positive blood culture; conditions: for MIC: Escherichia coli
Procedure: In order to prepare the contrast agent, sterile human whole blood (ZenBio, Research Triangle Park, N.C.) was stored at 4° C. and used within two weeks. […] For use as contrast, whole blood was diluted in sterile cation-adjusted Mueller Hinton broth (CAMHB; BD Biosciences, San Jose, Calif.) media (10% v/v).
Relating to an example colorimetric AST directly from positive blood culture —BacT/ALERT FA PLUS positive blood cultures were 500-fold diluted in CAMHB media and dispensed in the 96-well plate antibiotic panels. […] Final antibiotic concentrations ranged from approximately 0.03125 μg/mL to approximately 64 μg/mL along each row, with final dilution of blood cultures being 1000-fold. […] Wells H1, H9, and H10 are media-only negative controls, while wells H11 and H12 are no-antibiotic positive controls. […] ChroMIC ASTs were performed and compared (blinded) against both Vitek-2-determined MICs and vs. BMD. Each blood culture was also plated to retroactively determine inoculum size used.
Negative control wells with antibiotics and media only were allocated to ensure the sterility of media and antibiotics. Positive control wells were prepared to track bacterial growth without antibiotics and these controls were used in developing real-time automated analysis. After preparation of assays, the 96-well plates were covered with sterile sealing film (VWR International, Radnor, Pa.) and incubated at 37° C. for 18 hours with imaging as described below.
Example instruments used with the example colorimetric AST are disclosed herein. Four computer-controlled cameras (Raspberry Pi HQ) were connected to an ArduCam multicamera board in a Raspberry Pi 4B computer running the latest version of Raspian operating system. Within an incubator held at approximately 37° C., 96-well microtiter plates were held in 3D-printed holders, approximately 10 cm above the camera. A low distortion wide-angle lens was used to image microtiter plates from below, with LED illumination from above. Software collected images once every 15 minutes from each active camera over an 18-hour period. Images were analyzed both visually and by computer for red, green, and blue channel pixel intensities. Automated well detection was performed with OpenCV in python based on color value and the two most significant principal color components within each well were calculated and used to determine positive versus negative bacterial growth. […] SVM-derived probabilities were used to determine growth or no growth in each well. The left—most well in each row maintaining bright red color (no growth) was taken as the MIC.
ChroMIC assays were automated to acquire one image every 15 minutes over 18 hours. […] Wells can be automatically detected based on their color and the mean RGB color values can be taken from the average color of a 40×40 pixel area around each well centroid. Principal components using RGB values as input dimensions can be calculated for the wells in each image. […] Wells H1-H10 on each image and all wells (A1-H12) from the first hour (5 images—all before growth occurs) can be used as negative control wells. […] Since PCs are calculated for each image, all positive and negative controls are rotated into the current image PC space. A grid search can be performed to find the optimal SVM discriminant (FIG. 20B), and probabilities are used to assign growth (+) or no growth (−) for each well.
FIGS. 20-23 show aspects of automated real-time ChroMIC assay of an E. coli sample. An example of acquired images at different times (0 hours, 4 hours, 6 hours, 8 hours, 10 hours, 12 hours and 18 h) is shown in FIG. 19. […] This enables labels and MIC determinations for each antibiotic at each time point.

[2] = tested on: E. coli strain Mu890; assay: Rapid colorimetric AST in spiked human whole blood / blood culture medium (colour change, near IR absorbance); conditions: 37° C.; for Susceptibility of Mu890 (colorimetric assay / near IR absorption): CLSI susceptible and resistant breakpoints, 2.55 × 10^4 CFU/mL in wells, 24 hours; for Susceptibility of Mu890 (colour change of blood): rapid colorimetric AST, CLSI breakpoint concentrations, 96-well plate, up to 24 hours incubation
Text: (§1) The antibiotics concentration and the initial concentration of bacterial cells in the wells shown in FIG. 8A are tabulated in Table 3.

[3] = tested on: E. coli strain Mu890; assay: Standard broth microdilution (BMD), turbidity; conditions: validation of near IR experiment, 6×10^6 CFU/mL per well
Procedure: This color change results from the growth and presence of viable bacteria. When bacteria are resistant to the given antibiotic concentration, the color change is clearly observed. […] Results were validated by comparing with the gold standard BMD (FIGS. 4A and 4B). The gold standard BDM requires 16 to 24 hours incubation of plates after isolation of pure bacteria from positive blood cultures. In this case, the BMD was done by subculturing a pure colony of Mu890 in 4 mL CAMHB for 3 hours, followed by OD-600 adjustment such that the final concentration of bacteria is 6×10^6 CFU/mL per well. The plate was incubated at 37° C. for 18 hours and the image was acquired (FIG. 4B).

[4] = tested on: P. aeruginosa strain PA46; assay: Standard broth microdilution (BMD); conditions: 6×10^6 CFU/mL per well
Procedure: as §1
The bacterial density in the standard BMD method was 6×10^6 CFU/mL per well before incubation, while the bacterial density in the colorimetric assay before the incubation is given in Table 3.

[5] = real-time Bayesian updated MIC, 4 hour, read-out: MIC (4 hour)
[6] = real-time Bayesian updated MIC, 6 hour, read-out: MIC (6 hour)
[7] = real-time Bayesian updated MIC, 8 hour, read-out: MIC (8 hour)
[8] = real-time Bayesian updated MIC, 10 hour, read-out: MIC (10 hour)
[9] = real-time Bayesian updated MIC, 12 hour, read-out: MIC (12 hour)
[10] = real-time Bayesian updated MIC, 16 hour, read-out: MIC (16 hour)

Compound	MIC [1, 5] [µg/mL]	MIC [1, 6] [µg/mL]	MIC [1, 7] [µg/mL]	MIC [1, 8] [µg/mL]	MIC [1, 9] [µg/mL]	MIC [1, 10] [µg/mL]	Susceptibility of Mu890 (colorimetric assay / near IR absorption) [2]	Susceptibility of Mu890 (standard BMD method) [3]	further results
C[C@@H](O)[C@H]1C(=O)N2C(C(=O)O)=C(S[C@@H]3CN[C@H](C(=O)N(C)C)C3)[C@H](C)[C@H]12 [Meropenem, meropenem]	0.0625 (≈ 0.163 µM)	≤ 0.0312	≤ 0.0312	≤ 0.0312	≤ 0.0312	≤ 0.0312	susceptible	susceptible	
NCC[C@H](O)C(=O)N[C@@H]1C[C@H](N)[C@@H](O[C@H]2O[C@H](CN)[C@@H](O)[C@H](O)[C@H]2O)[C@H](O)[C@H]1O[C@H]1O[C@H](CO)[C@@H](O)[C@H](N)[C@H]1O [Amikacin, amikacin]	1 (≈ 1.71 µM)	1 (≈ 1.71 µM)	1 (≈ 1.71 µM)	2 (≈ 3.42 µM)	2 (≈ 3.42 µM)	2 (≈ 3.42 µM)			
gentamicin									MIC (4 hour) ([1]; real-time Bayesian updated MIC, 4 hour): 0.5 µg/mL; MIC (6 hour) ([1]; real-time Bayesian updated MIC, 6 hour): 0.5 µg/mL; MIC (8 hour) ([1]; real-time Bayesian updated MIC, 8 hour): 0.5 µg/mL; MIC (10 hour) ([1]; real-time Bayesian updated MIC, 10 hour): 1 µg/mL; MIC (12 hour) ([1]; real-time Bayesian updated MIC, 12 hour): 1 µg/mL; MIC (16 hour) ([1]; real-time Bayesian updated MIC, 16 hour): 1 µg/mL
CO/N=C(\C(=O)N[C@@H]1C(=O)N2C(C(=O)[O-])=C(C[N+]3(C)CCCC3)CS[C@H]12)c1csc(N)n1 [Cefepime, cefepime]									MIC ([1]; 4 h, read-out: MIC (4 hour)): ≤ 0.0312 µg/mL; MIC ([1]; 6 h, read-out: MIC (6 hour)): ≤ 0.0312 µg/mL; MIC ([1]; 8 h, read-out: MIC (8 hour)): ≤ 0.0312 µg/mL; MIC ([1]; 10 h, read-out: MIC (10 hour)): ≤ 0.0312 µg/mL; MIC ([1]; 12 h, read-out: MIC (12 hour)): ≤ 0.0312 µg/mL; MIC ([1]; 16 h, read-out: MIC (16 hour)): ≤ 0.0312 µg/mL
Cc1nnc(SCC2=C(C(=O)O)N3C(=O)[C@@H](NC(=O)Cn4cnnn4)[C@H]3SC2)s1 [cefazolin]									Susceptibility of PA46 (standard BMD method) [4]: resistant
CC(C)(O/N=C(\C(=O)N[C@@H]1C(=O)N2C(C(=O)[O-])=C(C[n+]3ccccc3)CS[C@H]12)c1csc(N)n1)C(=O)O [Ceftazidime, ceftazidime]	0.25 (≈ 0.457 µM)	0.25 (≈ 0.457 µM)	0.125 (≈ 0.229 µM)	0.125 (≈ 0.229 µM)	0.125 (≈ 0.229 µM)	0.125 (≈ 0.229 µM)	susceptible	susceptible	Susceptibility of Mu890 (colour change of blood) [2]: sensitive
C[C@H]1COc2c(N3CCN(C)CC3)c(F)cc3c(=O)c(C(=O)O)cn1c23 [Levofloxacin, levofloxacin]	≤ 0.0312	≤ 0.0312	≤ 0.0312	≤ 0.0312	≤ 0.0312	≤ 0.0312			
NC[C@H]1O[C@H](O[C@H]2[C@H](O)[C@@H](O[C@H]3O[C@H](CO)[C@@H](O)[C@H](N)[C@H]3O)[C@H](N)C[C@@H]2N)[C@H](N)C[C@@H]1O [Tobramycin, tobramycin]	0.5 (≈ 1.07 µM)	0.5 (≈ 1.07 µM)	0.5 (≈ 1.07 µM)	0.5 (≈ 1.07 µM)	1 (≈ 2.14 µM)	1 (≈ 2.14 µM)	susceptible	susceptible	Susceptibility of Mu890 (colour change of blood) [2]: sensitive
